Measured values reported in the supplement of paper PMC10307832.

compound: C1CSC2=C(C(=O)N1)SC3=C2C=C(C=C3)O [kb NB 142-70] + Cc1nc(Nc2ncc(C(=O)Nc3c(C)cccc3Cl)s2)cc(N2CCN(CCO)CC2)n1 [Dasatinib] (partner 0.075 µM); experiment: relative viability (nuclei count vs DMSO), 5 days (fraction); higher = more cells survive; conditions: first compound 0.1 µM
Method in brief: (§1)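 Cells from lung cancer lines were seeded into 1536-well plates and, one day later, dosed by pin tool. Treatments were either a single drug or a fixed dose of an anchor drug with five library-drug doses (not always all listed) in √10 steps. After 5 days, nuclei were stained in a one-step fixation (final 0.05% Triton X-100, 1% formaldehyde, 1 ug/ml Hoechst) and counted on 4× images, and relative viability is the treated-to-vehicle nuclei ratio, as the median of duplicate plates.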

| Cell Line | relative viability |
| --- | --- |
| NCI-H1437 | 0.485 |
| NCI-H1755 | 0.456 |
| NCI-H2023 | 0.51 |
| HCC-15 | 0.638 |
| NCI-H1793 | 0.388 |
| PC-14 | 0.299 |
| EKVX | 0.559 |
| LC-2-ad | 0.609 |
| NCI-H1944 | 0.207 |
| NCI-H1975 | 0.395 |
| RERF-LC-KJ | 0.834 |
| NCI-H358 | 0.15 |
| NCI-H650 | 0.495 |
| PC-3 [JPC-3] | 0.94 |

same assay, conditions: first compound 1 µM

| Cell Line | relative viability |
| --- | --- |
| NCI-H1437 | 0.459 |
| NCI-H1755 | 0.425 |
| NCI-H2023 | 0.536 |
| HCC-15 | 0.574 |
| NCI-H1793 | 0.424 |
| PC-14 | 0.239 |
| EKVX | 0.289 |
| LC-2-ad | 0.607 |
| NCI-H1944 | 0.243 |
| NCI-H1975 | 0.421 |
| RERF-LC-KJ | 0.872 |
| NCI-H358 | 0.109 |
| NCI-H650 | 0.475 |
| PC-3 [JPC-3] | 1.05 |

same assay, conditions: first compound 3.162 µM

| Cell Line | relative viability |
| --- | --- |
| NCI-H1437 | 0.433 |
| NCI-H1755 | 0.419 |
| NCI-H2023 | 0.5 |
| HCC-15 | 0.459 |
| NCI-H1793 | 0.443 |
| PC-14 | 0.224 |
| EKVX | 0.729 |
| LC-2-ad | 0.463 |
| NCI-H1944 | 0.201 |
| NCI-H1975 | 0.364 |
| RERF-LC-KJ | 0.752 |
| NCI-H358 | 0.127 |
| NCI-H650 | 0.377 |
| PC-3 [JPC-3] | 1.02 |

compound: NCC(=O)Nc1ccc(-n2nc(C(F)(F)F)cc2-c2ccc3c(ccc4ccccc43)c2)cc1 + Cc1nc(Nc2ncc(C(=O)Nc3c(C)cccc3Cl)s2)cc(N2CCN(CCO)CC2)n1 [Dasatinib] (partner 0.075 µM); experiment: as above; conditions: first compound 0.02 µM
Method in brief: as §1

| Cell Line | relative viability |
| --- | --- |
| NCI-H1437 | 0.309 |
| NCI-H1755 | 0.435 |
| NCI-H2023 | 0.649 |
| HCC-15 | 0.619 |
| NCI-H1793 | 0.352 |
| PC-14 | 0.281 |
| EKVX | 0.554 |
| LC-2-ad | 0.478 |
| NCI-H1944 | 0.199 |
| NCI-H1975 | 0.318 |
| RERF-LC-KJ | 0.809 |
| NCI-H358 | 0.165 |
| NCI-H650 | 0.4 |
| PC-3 [JPC-3] | 1.08 |

same assay, conditions: first compound 0.06325 µM

| Cell Line | relative viability |
| --- | --- |
| NCI-H1437 | 0.359 |
| NCI-H1755 | 0.44 |
| NCI-H2023 | 0.549 |
| HCC-15 | 0.709 |
| NCI-H1793 | 0.431 |
| PC-14 | 0.303 |
| EKVX | 0.6 |
| LC-2-ad | 0.677 |
| NCI-H1944 | 0.221 |
| NCI-H1975 | 0.387 |
| RERF-LC-KJ | 0.985 |
| NCI-H358 | 0.138 |
| NCI-H650 | 0.479 |
| PC-3 [JPC-3] | 0.981 |

same assay, conditions: first compound 0.2 µM

| Cell Line | relative viability |
| --- | --- |
| NCI-H1437 | 0.265 |
| NCI-H1755 | 0.431 |
| NCI-H2023 | 0.618 |
| HCC-15 | 0.651 |
| NCI-H1793 | 0.391 |
| PC-14 | 0.297 |
| EKVX | 0.648 |
| LC-2-ad | 0.609 |
| NCI-H1944 | 0.208 |
| NCI-H1975 | 0.443 |
| RERF-LC-KJ | 0.835 |
| NCI-H358 | 0.153 |
| NCI-H650 | 0.434 |
| PC-3 [JPC-3] | 1.02 |

same assay, conditions: first compound 0.6325 µM

| Cell Line | relative viability |
| --- | --- |
| NCI-H1437 | 0.506 |
| NCI-H1755 | 0.45 |
| NCI-H2023 | 0.6 |
| HCC-15 | 0.632 |
| NCI-H1793 | 0.404 |
| PC-14 | 0.234 |
| EKVX | 0.527 |
| LC-2-ad | 0.714 |
| NCI-H1944 | 0.211 |
| NCI-H1975 | 0.38 |
| RERF-LC-KJ | 0.878 |
| NCI-H358 | 0.173 |
| NCI-H650 | 0.377 |
| PC-3 [JPC-3] | 1.03 |

same assay, conditions: first compound 2 µM

| Cell Line | relative viability |
| --- | --- |
| NCI-H1437 | 0.526 |
| NCI-H1755 | 0.414 |
| NCI-H2023 | 0.552 |
| HCC-15 | 0.673 |
| NCI-H1793 | 0.411 |
| PC-14 | 0.302 |
| EKVX | 0.488 |
| LC-2-ad | 0.577 |
| NCI-H1944 | 0.24 |
| NCI-H1975 | 0.387 |
| RERF-LC-KJ | 0.76 |
| NCI-H358 | 0.189 |
| NCI-H650 | 0.459 |
| PC-3 [JPC-3] | 1.11 |

compound: NCC(=O)Nc1ccc(-n2nc(C(F)(F)F)cc2-c2ccc3c(ccc4ccccc43)c2)cc1 + O=C(CCCCCCC(=O)Nc1ccccc1)NO [Vorinostat] (partner 1 µM); experiment: as above; conditions: first compound 0.02 µM
Method in brief: as §1

| Cell Line | relative viability |
| --- | --- |
| NCI-H1437 | 0.834 |
| NCI-H1755 | 0.758 |
| NCI-H2023 | 0.619 |
| HCC-15 | 0.878 |
| NCI-H1793 | 0.758 |
| PC-14 | 0.685 |
| EKVX | 0.726 |
| LC-2-ad | 0.68 |
| NCI-H1944 | 0.546 |
| NCI-H1975 | 0.728 |
| RERF-LC-KJ | 0.59 |
| NCI-H358 | 0.735 |
| NCI-H650 | 0.469 |
| PC-3 [JPC-3] | 0.902 |

same assay, conditions: first compound 0.06325 µM

| Cell Line | relative viability |
| --- | --- |
| NCI-H1437 | 0.866 |
| NCI-H1755 | 0.824 |
| NCI-H2023 | 0.854 |
| HCC-15 | 0.94 |
| NCI-H1793 | 0.874 |
| PC-14 | 0.62 |
| EKVX | 0.83 |
| LC-2-ad | 0.757 |
| NCI-H1944 | 0.695 |
| NCI-H1975 | 0.729 |
| RERF-LC-KJ | 0.652 |
| NCI-H358 | 0.728 |
| NCI-H650 | 0.424 |
| PC-3 [JPC-3] | 0.854 |

same assay, conditions: first compound 0.2 µM

| Cell Line | relative viability |
| --- | --- |
| NCI-H1437 | 0.887 |
| NCI-H1755 | 0.788 |
| NCI-H2023 | 0.58 |
| HCC-15 | 1.04 |
| NCI-H1793 | 0.699 |
| EKVX | 0.751 |
| LC-2-ad | 0.769 |
| NCI-H1944 | 0.554 |
| NCI-H1975 | 0.804 |
| RERF-LC-KJ | 0.609 |
| NCI-H358 | 0.694 |
| NCI-H650 | 1.29 |
| PC-3 [JPC-3] | 0.778 |

same assay, conditions: first compound 0.6325 µM

| Cell Line | relative viability |
| --- | --- |
| NCI-H1437 | 0.802 |
| NCI-H1755 | 0.768 |
| NCI-H2023 | 0.653 |
| HCC-15 | 0.861 |
| NCI-H1793 | 0.793 |
| PC-14 | 0.659 |
| EKVX | 0.724 |
| LC-2-ad | 0.673 |
| NCI-H1944 | 0.558 |
| NCI-H1975 | 0.704 |
| RERF-LC-KJ | 0.758 |
| NCI-H358 | 0.768 |
| NCI-H650 | 0.369 |
| PC-3 [JPC-3] | 1.03 |

same assay, conditions: first compound 2 µM

| Cell Line | relative viability |
| --- | --- |
| NCI-H1437 | 0.754 |
| NCI-H1755 | 0.833 |
| NCI-H2023 | 0.621 |
| HCC-15 | 0.841 |
| NCI-H1793 | 0.86 |
| PC-14 | 0.657 |
| EKVX | 0.731 |
| LC-2-ad | 0.76 |
| NCI-H1944 | 0.526 |
| NCI-H1975 | 0.747 |
| RERF-LC-KJ | 0.772 |
| NCI-H358 | 0.653 |
| NCI-H650 | 0.361 |
| PC-3 [JPC-3] | 0.822 |

compound: C1CSC2=C(C(=O)N1)SC3=C2C=C(C=C3)O [kb NB 142-70] + Nc1nc2[nH]cc(CCc3ccc(C(=O)N[C@@H](CCC(=O)O)C(=O)O)cc3)c2c(=O)[nH]1 [Pemetrexed] (partner 0.2 µM); experiment: as above; conditions: first compound 0.1 µM
Method in brief: as §1

| Cell Line | relative viability |
| --- | --- |
| NCI-H1437 | 0.297 |
| NCI-H1755 | 0.43 |
| NCI-H2023 | 0.253 |
| HCC-15 | 0.227 |
| NCI-H1793 | 0.73 |
| PC-14 | 0.134 |
| EKVX | 0.35 |
| LC-2-ad | 0.275 |
| NCI-H1944 | 0.633 |
| NCI-H1975 | 0.259 |
| RERF-LC-KJ | 0.461 |
| NCI-H358 | 0.175 |
| NCI-H650 | 1.07 |
| PC-3 [JPC-3] | 1.11 |

same assay, conditions: first compound 1 µM

| Cell Line | relative viability |
| --- | --- |
| NCI-H1437 | 0.359 |
| NCI-H1755 | 0.403 |
| NCI-H2023 | 0.283 |
| HCC-15 | 0.238 |
| NCI-H1793 | 0.902 |
| PC-14 | 0.148 |
| EKVX | 0.399 |
| LC-2-ad | 0.23 |
| NCI-H1944 | 0.757 |
| NCI-H1975 | 0.309 |
| RERF-LC-KJ | 0.477 |
| NCI-H358 | 0.141 |
| NCI-H650 | 1.03 |
| PC-3 [JPC-3] | 1 |

same assay, conditions: first compound 3.162 µM

| Cell Line | relative viability |
| --- | --- |
| NCI-H1437 | 0.349 |
| NCI-H1755 | 0.519 |
| NCI-H2023 | 0.221 |
| HCC-15 | 0.227 |
| NCI-H1793 | 0.609 |
| PC-14 | 0.139 |
| EKVX | 0.378 |
| LC-2-ad | 0.295 |
| NCI-H1944 | 0.665 |
| NCI-H1975 | 0.239 |
| RERF-LC-KJ | 0.417 |
| NCI-H358 | 0.114 |
| NCI-H650 | 0.843 |
| PC-3 [JPC-3] | 0.559 |
